Assay results reported in patent US20060069132A1, “Azolecarboxamide herbicides” (priority 2004, published 2006).

Experiments:
barnyardgrass [1] = experiment: Test B flooded paddy test; type: in vivo, Echinochloa crus-galli; conditions: 1000 g ai/ha, scale 0 to 100 (0 no effect, 100 complete control)
Summary of the method: (§1)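 Postemergence plants were sprayed with formulated test chemicals at 2 to 18 cm height (1- to 4-leaf stage); paddy species were grown to the 2-leaf stage. After 13 to 15 days in a greenhouse, injury was rated visually against untreated controls on a 0–100 scale (0 = no effect, 100 = complete control).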

cocklebur = experiment: Test B pre-/postemergence herbicide test; type: in vivo, Xanthium strumarium
Summary of the method: (§2)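 Seeds were planted and treated preemergence with compounds formulated in a non-phytotoxic solvent mixture containing surfactant, while plants at the 1- to 4-leaf stage (2 to 18 cm) received postemergence sprays. Flooded paddy plants were grown to the 2-leaf stage. After 13 to 15 days in a greenhouse, injury was visually rated 0–100 against untreated controls.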

windgrass = experiment: Test C postemergence herbicide test; type: in vivo, Apera spica-venti
Method: (§3) At the same time, plants selected from these crop and weed species and also winter barley (Hordeum vulgare L.), blackgrass (Alopecurus myosuroides Huds.), canarygrass (Phalaris minor Retz.), chickweed (Stellaria media (L.) Vill.), downy bromegrass (Bromus tectorum L.), green foxtail (Setaria viridis (L.) Beauv.), Italian ryegrass (Lolium multiflorum Lam.), wheat (Triticum aestivum L.), wild oat (Avenafatua L.) and windgrass (Apera spica-venti (L.) Beauv.) were treated with postemergence applications of some of the test chemicals formulated in the same manner. Plants ranged in height from 2 to 18 cm (1- to 4-leaf stage) for postemergence treatments. Plant species in the flooded paddy test consisted of rice (Oryza sativa), smallflower umbrella sedge (Cyperus difformis L.), ducksalad (Heteranthera limosa (Sw.) Willd.) and barnyardgrass (Echinochloa crus-galli (L.) Beauv.) grown to the 2-leaf stage for testing. Treated plants and controls were maintained in a greenhouse for 12 to 14 days, after which time all species were compared to controls and visually evaluated. Plant response ratings, summarized in Table C, are based on a scale of 0 to 100 where 0 is no effect and 100 is complete control. A dash (-) response means no test result.

Italian ryegrass = experiment: Test C postemergence herbicide test; type: in vivo, Lolium multiflorum
Method: as §3

rice = experiment: Test B flooded paddy test; type: in vivo, Oryza sativa; conditions: 1000 g ai/ha, scale 0 to 100 (0 no effect, 100 complete control)
Summary of the method: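 Treated at 2-leaf (paddy) or 1–4-leaf, 2–18 cm (postemergence); greenhouse 13–15 d; visual score vs control, 0 none to 100 complete control; dash = not tested.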

lambsquarters = experiment: Test B pre-/postemergence herbicide test; type: in vivo, Chenopodium album
Summary of the method: (§4)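 Herbicidal effect was judged by eye on a 0–100 scale after plants stood 13 to 15 days in the greenhouse following pre- or postemergence treatment with surfactant-containing formulations.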

green foxtail = experiment: Test C postemergence herbicide test; type: in vivo, Setaria viridis
Method: as §3

wheat [2] = experiment: Test B postemergence herbicide test; type: in vivo, Triticum aestivum; set-up: key to Wheat plant response rating: 0 = no effect, 100 = complete control
Summary of the method: (§5)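 Greenhouse test; postemergence application to plants at 1–4 leaves (2–18 cm); paddy species at 2 leaves; evaluated visually vs controls at 13–15 days; scale 0–100 (100 = complete control).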

Surinam grass = experiment: Test B pre-/postemergence herbicide test; type: in vivo, Urochloa decumbens
Summary of the method: as §4

morningglory = experiment: Test B pre-/postemergence herbicide test; type: in vivo, Ipomoea coccinea
Summary of the method: as §2

[3] = test system: small flower umbrella sedge; experiment: Test B flooded paddy test; type: in vivo, Cyperus difformis; conditions: 1000 g ai/ha, scale 0 to 100 (0 no effect, 100 complete control)
Summary of the method: as §1

winter barley = experiment: Test C postemergence herbicide test; type: in vivo, Hordeum vulgare
Method: as §3

wild oat [4] = experiment: Test C postemergence herbicide test; type: in vivo, Avenafatua
Method: as §3

pigweed = experiment: Test B pre-/postemergence herbicide test; type: in vivo, Amaranthus retroflexus
Summary of the method: as §4

blackgrass [5] = experiment: Test B postemergence herbicide test; type: in vivo, Alopecurus myosuroides
Summary of the method: as §1

wheat [6] = experiment: Test C postemergence herbicide test; type: in vivo, Triticum aestivum
Method: as §3

large crabgrass = experiment: Test B pre-/postemergence herbicide test; type: in vivo, Digitaria sanguinalis
Summary of the method: as §4

canarygrass = experiment: Test C postemergence herbicide test; type: in vivo, Phalaris minor
Method: as §3

ducksalad = experiment: Test B flooded paddy test; type: in vivo, Heteranthera limosa; conditions: 1000 g ai/ha, scale 0 to 100 (0 no effect, 100 complete control)
Summary of the method: as §1

giant foxtail = experiment: Test B pre-/postemergence herbicide test; type: in vivo, Setaria faberi
Summary of the method: as §4

corn = experiment: Test B pre-/postemergence herbicide test; type: in vivo, Zea mays
Summary of the method: as §4

barnyardgrass [7] = experiment: Test B pre-/postemergence herbicide test; type: in vivo, Echinochloa crus-galli; conditions: for Barnyardgrass plant response rating: Postemergence, scale 0 (no effect) to 100 (complete control)
Summary of the method: as §2

blackgrass [8] = experiment: Test C postemergence herbicide test; type: in vivo, Alopecurus myosuroides
Method: as §3

velvetleaf = experiment: Test B pre-/postemergence herbicide test; type: in vivo, Abutilon theophrasti
Summary of the method: as §4

wild oat [9] = experiment: Test B postemergence herbicide test; type: in vivo, Avena fatua
Summary of the method: as §5

downy bromegrass = experiment: Test C postemergence herbicide test; type: in vivo, Bromus tectorum
Method: as §3

[10] = 125 g ai/ha, 0 is no effect, 100 is complete control, preemergence
[11] = Postemergence, 500 g ai/ha, scale 0 (no effect) to 100 (complete control)
[12] = postemergence, 125 g ai/ha, scale 0 to 100
[13] = Postemergence, 500 g ai/ha, scale 0 to 100, 0 no effect, 100 complete control
[14] = postemergence, 62 g ai/ha, scale 0 to 100
[15] = Postemergence, 250 g ai/ha, scale 0 to 100, 0 no effect, 100 complete control
[16] = Postemergence, 500 g ai/ha, scale 0 to 100

C=CCN(CC=C)C(=O)c1ccc(F)c(NC(=O)c2cc(C(C)(C)C)nn2CC)c1 [Compound 431]
Barnyardgrass plant response rating (barnyardgrass [1]): 60
Plant response rating (0 to 100 scale), Cocklebur (cocklebur; [10]): 0
Cocklebur plant response rating (cocklebur; [11]): 60
Cocklebur plant response rating (cocklebur; [12]): 30
Plant response rating, Windgrass (windgrass; [13]): 60
Plant response rating, Windgrass (windgrass; [12]): 40
Plant response rating, Windgrass (windgrass; [14]): 40
Plant response rating, Ryegrass, Italian (Italian ryegrass; [13]): 55
Plant response rating, Ryegrass, Italian (Italian ryegrass; [12]): 45
Plant response rating, Ryegrass, Italian (Italian ryegrass; [14]): 40
Rice plant response rating (rice): 30
Plant response rating (0 to 100 scale), Lambsquarters (lambsquarters; [10]): 60
Lambsquarters plant response rating (lambsquarters; [11]): 60
Lambsquarters plant response rating (lambsquarters; [12]): 40
Plant response rating, Foxtail, Green (green foxtail; [15]): 60
Plant response rating, Foxtail, Green (green foxtail; [13]): 65
Plant response rating, Foxtail, Green (green foxtail; [12]): 60
Plant response rating, Foxtail, Green (green foxtail; [14]): 45
Wheat plant response rating (wheat [2]; 500 g ai/ha, scale 0 to 100, 0 no effect, 100 complete control, preemergence): 10
Wheat plant response rating (wheat [2]; [11]): 30
Wheat plant response rating (wheat [2]; [12]): 30
Plant response rating (0 to 100 scale), Surinam Grass (Surinam grass; [10]): 10
Surinam Grass plant response rating (Surinam grass; [11]): 30
Surinam Grass plant response rating (Surinam grass; [12]): 20
Plant response rating (0 to 100 scale), Morningglory (morningglory; [10]): 0
Morningglory plant response rating (morningglory; [11]): 70
Morningglory plant response rating (morningglory; [12]): 40
Sedge, Umbrella plant response rating [3]: 80
Barley, Winter plant response rating (winter barley; [16]): 60
Plant response rating, Barley, Winter (winter barley; [15]): 45
Plant response rating, Barley, Winter (winter barley; postemergence, 125 g ai/ha, scale 0 to 100 (0 no effect, 100 complete control)): 40
Plant response rating, Barley, Winter (winter barley; postemergence, 62 g ai/ha, scale 0 to 100 (0 no effect, 100 complete control)): 40
Plant response rating, Oat, Wild (wild oat [4]; [13]): 65
Plant response rating, Oat, Wild (wild oat [4]; [12]): 55
Plant response rating, Oat, Wild (wild oat [4]; [14]): 45
Plant response rating (0 to 100 scale), Pigweed (pigweed; [10]): 40
Pigweed plant response rating (pigweed; [11]): 70
Pigweed plant response rating (pigweed; [12]): 50
Blackgrass plant response rating (blackgrass [5]; [11]): 50
Blackgrass plant response rating (blackgrass [5]; [12]): 30
Plant response rating, Wheat (wheat [6]; [13]): 45
Plant response rating, Wheat (wheat [6]; [12]): 40
Plant response rating, Wheat (wheat [6]; [14]): 40
Plant response rating (0 to 100 scale), Crabgrass, Large (large crabgrass; [10]): 60
Crabgrass, Large plant response rating (large crabgrass; [11]): 30
Crabgrass, Large plant response rating (large crabgrass; [12]): 20
Plant response rating, Canarygrass (canarygrass; [15]): 60
Plant response rating, Canarygrass (canarygrass; [13]): 60
Plant response rating, Canarygrass (canarygrass; [12]): 45
Plant response rating, Canarygrass (canarygrass; [14]): 40
Ducksalad plant response rating (ducksalad): 80
Plant response rating (0 to 100 scale), Foxtail, Giant (giant foxtail; [10]): 50
Foxtail, Giant plant response rating (giant foxtail; [11]): 30
Foxtail, Giant plant response rating (giant foxtail; [12]): 20
Plant response rating (0 to 100 scale), Corn (corn; [10]): 0
Corn plant response rating (corn; [11]): 20
Corn plant response rating (corn; [12]): 20
Plant response rating (0 to 100 scale), Barnyardgrass (barnyardgrass [7]; [10]): 10
Barnyardgrass plant response rating (barnyardgrass [7]; 125 g ai/ha): 10
Barnyardgrass plant response rating (barnyardgrass [7]; 500 g ai/ha): 20
Blackgrass plant response rating (blackgrass [8]; [16]): 60
Plant response rating, Blackgrass (blackgrass [8]; [15]): 60
Plant response rating, Blackgrass (blackgrass [8]; [12]): 55
Plant response rating, Blackgrass (blackgrass [8]; [14]): 45
Plant response rating (0 to 100 scale), Velvetleaf (velvetleaf; [10]): 20
Velvetleaf plant response rating (velvetleaf; [11]): 40
Velvetleaf plant response rating (velvetleaf; [12]): 20
Oat, Wild plant response rating (wild oat [9]; [11]): 50
Oat, Wild plant response rating (wild oat [9]; [12]): 30
Plant response rating, Bromegrass, Downy (downy bromegrass; [15]): 55
Plant response rating, Bromegrass, Downy (downy bromegrass; [13]): 60
Plant response rating, Bromegrass, Downy (downy bromegrass; [12]): 45
Plant response rating, Bromegrass, Downy (downy bromegrass; [14]): 40
